Assay results from patent US10723778B2, “Variants of adrenomedullin and calcitonin gene-related peptide and methods of use” (The Board of Regents of the University of Oklahoma, priority 2015, dated 2020).
Like-named read-outs stand apart in the source and are kept apart here. Where no end group is shown, it is not given here.

Experiments:
[1] = molecular target: T1, RAMP1-CLR ECD (CGRP); purified MBP-RAMP1 ECD-(GS)5-CLR ECD-H6 fusion protein (Homo sapiens, UniProt O60894+Q16602); experiment: Fluorescence polarization (FP) peptide binding competition assay, CGRP receptor ECD complex; conditions: for Receptor Selectivity, fold for CGRP: CGRP (RAMP1-CLR ECD) over AM1 (RAMP2-CLR ECD); for Receptor Selectivity (in words): CGRP vs AM1 receptor ECD complexes
T1 construct: MBP-hRAMP1.24-111-(Gly-Ser)5-hCLR.29-144-H6; made in house; host or cells: E. coli
Method: (§1) Fluorescence polarization peptide binding assay. […] The reactions (50 μL) were incubated for 2 hours at room temperature to reach equilibrium, and the anisotropy was measured in black half-area 96-well plates using a BMG LABTECH's POLARstar® Omega plate reader (Ortenberg, Germany). The reaction buffer was 50 mM HEPES, pH 7.5, 150 mM NaCl, 0.5 mg/ml fatty acid-free BSA, 0.5 mM EDTA, 0.5 mM maltose. Ki values were calculated using nonlinear regression fitting of the competition curves to the exact analytical equations of Roehrl et al. (Biochemistry (2004) 43:16056-66) using GraphPad Prism 5.0 (GraphPad Software, San Diego Calif.).
(§2) The ability of the indicated peptides to displace a FITC-Ahx-AM(37-52)NH2 [S45W, Q50W] probe (7 nM) from purified MBP-RAMP1 ECD-(GS)5-CLR ECD-H6 fusion protein (15 nM) was assessed by fluorescence polarization (anisotropy). The reactions were incubated for 2 hours at room temperature to reach equilibrium, and the anisotropy was measured in black half-area 96-well plates using a BMG LABTECH's POLARstar® Omega plate reader (Ortenberg, Germany). The reaction buffer was 50 mM HEPES, pH 7.5, 150 mM NaCl, 0.5 mg/ml fatty acid-free BSA, 0.5 mM EDTA, 0.5 mM maltose. KI values were calculated using nonlinear regression fitting of the competition curves to the exact analytical equations of Roehrl et al. (Biochemistry (2004) 43:16056-66) using GraphPad Prism 5.0 (GraphPad Software, San Diego Calif.).
as §2, with “Single representative experiments conducted with duplicate samples are shown. Error bars are S.E.M. The ability” for “The ability”, “displace a FITC-Ahx-AM(37-52)NH2[S45W, Q50W] probe” for “displace a FITC-Ahx-AM(37-52)NH2 [S45W, Q50W] probe”
A fluorescence polarization/anisotropy (FP) peptide-binding assay was developed using N-terminally FITC-labeled AM(37-52) S45W/Q50W as the probe, hereafter “FITC-AM W/W.” The probe was custom synthesized and HPLC-purified by RS Synthesis. The large size difference between the MBP-RAMP ECD-CLR ECD fusion proteins (˜65 kDa) and the probe (˜2.5 kDa) ensures a significant anisotropy difference between bound and free states of the probe. […] Kd values for the probe at each of the tethered ECD fusion proteins were determined in equilibrium saturation binding experiments (data not shown), and KI values were determined for unlabeled peptides in equilibrium competition experiments (Table 1; FIGS. 2-5). The data were analyzed according to exact analytical equations using non-linear regression curve fitting in GraphPad Prism 5.0 (GraphPad Software) via user-defined equations.

[2] = molecular target: T2, RAMP2-CLR ECD (AM1); purified MBP-RAMP2 ECD [L106R]-(GS)5-CLR ECD-H6 fusion protein (Homo sapiens, UniProt O60895+Q16602, L106R); experiment: Fluorescence polarization (FP) peptide binding competition assay, AM1 receptor ECD complex; conditions: for RAMP2-CLR ECD (AM1) KI (nM) / Ki: FP competition, FITC-AM W/W probe 7 nM, fusion protein 110 nM
T2 construct: MBP-hRAMP2.55-140 [L106R]-(Gly-Ser-Ala)3-hCLR.29-144-H6; made in house; host or cells: E. coli
Method: as §1
FIG. 3(A-K) depicts binding of (A) AM-based peptide AM(37-52)NH2, and variant peptide AM(37-52)NH2[S45W, Q50W]; (B) AM-based peptide AM(37-52)NH2, variant peptide AM(37-52)NH2[Q50F], and variant peptide AM(37-52)NH2[Q50W]; (C) variant peptides AM(37-52)NH2[K46L], AM(37-52)NH2[K46M], and AM(37-52)NH2[D39F]; (D) variant peptides AM(37-52)NH2[D39F, K46L, Q50W], AM(37-52)NH2[D39F, K46L, Q50W, Y52F], and AM(37-52)NH2[S45W, K46L, Q50W, Y52F]; (E) variant peptides AM(37-52)NH2[[D39K], AM(37-52)NH2[K46L, Q50W], and AM(37-52)NH2[K46L, Q50W, Y52F]; (F) variant peptides AM(37-52)NH2[S45W, K46M, Q50W, Y52F], and AM(37-52)NH2[S45W, K46W, Q50W, Y52F]; (G) variant peptides AM(37-52)NH2[S45T, K46W, Q50W], AM(37-52)NH2[S45T, K46L, Q50W], and AM(37-52)NH2[S45W, K46L, S48G, Q50W, Y52F]; (H) variant peptide AM(37-52)NH2[S45W, K46L, I47M, Q50W, Y52F]; (I) variant peptides AM(37-52)NH2[S45R, K46W, Q50W], and AM(37-52)NH2[S45R, K46L, Q50W]; (J) variant peptides AM(37-52)NH2[S45R, K46W, S48G, Q50W], AM(37-52)NH2[S45R, K46L, S48G, Q50W], and AM(37-52)NH2[S45R, K46W, I47L, S48G, Q50W]; and (K) variant peptides AM(37-52)NH2[D39W, Q50W], and AM(37-52)NH2[D37V, S45W, K46L, Q50W, Y52F], to the purified AM1 receptor extracellular domain complex. Single representative experiments conducted with duplicate samples are shown. […] The reactions were incubated for 2 hours at room temperature to reach equilibrium, and the anisotropy was measured in black half-area 96-well plates using a BMG LABTECH's POLARstar® Omega plate reader (Ortenberg, Germany). The reaction buffer was 50 mM HEPES, pH 7.5, 150 mM NaCl, 0.5 mg/ml fatty acid-free BSA, 0.5 mM EDTA, 0.5 mM maltose. KI values were calculated using nonlinear regression fitting of the competition curves to the exact analytical equations of Roehrl et al. (Biochemistry (2004) 43:16056-66) using GraphPad Prism 5.0 (GraphPad Software, San Diego Calif.).
as §1, with “Single representative experiments conducted with duplicate samples are shown.” for “Fluorescence polarization peptide binding assay.”, “reactions” for “reactions (50 μL)”, “KI” for “Ki”
A fluorescence polarization/anisotropy (FP) peptide-binding assay was developed using N-terminally FITC-labeled AM(37-52) S45W/Q50W as the probe, hereafter “FITC-AM W/W.” The probe was custom synthesized and HPLC-purified by RS Synthesis. The large size difference between the MBP-RAMP ECD-CLR ECD fusion proteins (˜65 kDa) and the probe (˜2.5 kDa) ensures a significant anisotropy difference between bound and free states of the probe. […] Kd values for the probe at each of the tethered ECD fusion proteins were determined in equilibrium saturation binding experiments (data not shown), and KI values were determined for unlabeled peptides in equilibrium competition experiments (Table 1; FIGS. 2-5).

[3] = FP competition, FITC-AM W/W probe 7 nM, fusion protein 15 nM
[4] = RAMP1-CLR ECD (CGRP) KI (nM), FP competition, FITC-AM W/W probe 7 nM, fusion protein 15 nM
[5] = read-out: RAMP2-CLR ECD (AM1) KI

With “D39F: AM(37-52)NH2 scaffold variant peptide with D39F substitution (DKFNVAPRSKISPQGY-NH2) [Peptide D39F]” the “RAMP1-CLR ECD (CGRP) KI (nM)” value [1, 3] was “No binding” and the “RAMP2-CLR ECD (AM1) KI (nM)” value [2] was “No binding”.

DKDNVAPRSKISPFGY-NH2 [Peptide Q50F] was tested, and the Ki [1, 4] was 10500 nM and the “Receptor Selectivity, fold for AM1” value ([2]; AM1 (RAMP2-CLR ECD) over CGRP (RAMP1-CLR ECD), FP assay) was 5-fold for AM1.

In the case of DKDNVAPRSLISPQGY [Peptide K46L], the “RAMP1-CLR ECD (CGRP) KI (nM)” value [1, 3] is reported as “No binding” and the “RAMP2-CLR ECD (AM1) KI (nM)” value [2] is reported as “No binding”.

DKDNVAPRSLISPWGF-NH2 [K46L/Q50W/Y52F] was tested, and the “Receptor Selectivity, fold for CGRP” value ([1]; FP assay) was 2820-fold for CGRP and the Ki [1, 4] was 31.6 nM.

In the case of DKDNVAPRSLISPWGY-NH2 [K46L/Q50W], the “Receptor Selectivity, fold for CGRP” value ([1]; FP assay) is reported as 23-fold for CGRP and the Ki [1, 4] is reported as 70.8 nM.

For DKDNVAPRSMISPQGY [Peptide K46M], the “RAMP1-CLR ECD (CGRP) KI (nM)” value [1, 3] was “No binding” and the “RAMP2-CLR ECD (AM1) KI (nM)” value [2] was “No binding”.

With DKDNVAPRTLISPWGY-NH2 [S45T/K46L/Q50W] the “Receptor Selectivity, fold for CGRP” value ([1]; FP assay) was 24-fold for CGRP and the Ki [1, 4] was 65.6 nM.

With DKDNVAPRTWISPWGY-NH2 [S45T/K46W/Q50W] the “Receptor Selectivity, fold for CGRP” value ([1]; FP assay) was 28-fold for CGRP and the Ki [1, 4] was 439 nM.

For DKDNVAPRWKISPWGY-NH2 [S45W/Q50W], the “Receptor Selectivity (in words)” value ([1]; FP assay) was “Non-selective” and the Ki [1, 4] was 44.7 nM.

For “DKDNVAPRWLMSPWGF-NH2 [S45W/K46L/I47M/Q50W/Y52F]”, the “Receptor Selectivity (in words)” value ([1]; FP assay) was “CGRP (very selective)”, the Ki ([1]; KI for the CGRP receptor ECD complex, FP assay) was ~0.78 nM and the Ki [1, 4] was 0.78 nM. For the same substance, the “RAMP2-CLR ECD (AM1) KI (nM)” value [2] was “No binding” and the “RAMP2-CLR ECD (AM1) KI (nM)” value ([2]; listed as AM(37-52)NH2[S45W, K46L, I47M, Q50W, Y52F]) was “no binding”.

In the case of “DKDNVAPRWMISPWGF-NH2 [S45W/K46M/Q50W/Y52F]”, the “Receptor Selectivity, fold for CGRP” value ([1]; FP assay) is reported as 977-fold for CGRP and the Ki [1, 4] is reported as 7.94 nM.

“DKDNVAPRWWISPWGF-NH2 [S45W/K46W/Q50W/Y52F]” was tested, and the “Receptor Selectivity, fold for CGRP” value ([1]; FP assay) was 692-fold for CGRP and the Ki [1, 4] was 24 nM.

In the case of “DKFNVAPRSLISPWGF-NH2 [D39F/K46L/Q50W/Y52F]”, the “Receptor Selectivity, fold for CGRP” value ([1]; FP assay) is reported as 1213-fold for CGRP, the Ki [1, 4] is reported as 25 nM and the Ki ([2]; mean ± S.E.M, read-out: RAMP2-CLR ECD (AM1) pKI (converted)) is reported as 28200 nM.

With DKFNVAPRSLISPWGY-NH2 [D39F/K46L/Q50W] the “Receptor Selectivity, fold for CGRP” value ([1]; FP assay) was 22-fold for CGRP, the Ki [1, 4] was 82.2 nM and the Ki ([1]; RAMP1-CLR ECD (CGRP) pKI, FP competition, FITC-AM W/W probe 7 nM, fusion protein 15 nM, mean ± S.E.M of at least 3 independent experiments) was 79.4 nM.

DKKNVAPRSKISPQGY-NH2 [Peptide D39K] was tested, and the “Receptor Selectivity (in words)” value ([1]; FP assay) was “AM1” and the “RAMP1-CLR ECD (CGRP) KI (nM)” value [1, 3] was “No binding”.

“FVPTDTGPWGF-NH2 [N31D/V32T/S34P/K35W/A36G]” was tested, and the “Receptor Selectivity (in words)” value ([1]; FP assay) was “CGRP”, the Ki [1, 4] was 6.85 nM and the “RAMP2-CLR ECD (AM1) KI (nM)” value [2] was “No binding”.

For “FVPTDTGPWGY-NH2 [N31D/V32T/S34P/K35W/A36G/F37Y]”, the “Receptor Selectivity, fold for CGRP” value ([1]; FP assay) was 821-fold for CGRP and the Ki [1, 4] was 17.6 nM.

With “FVPTDTGPWSF-NH2 [N31D/V32T/S34P/K35W/A36S]” the “Receptor Selectivity, fold for CGRP” value ([1]; FP assay) was ≥2754-fold for CGRP, the “KI for the CGRP receptor ECD complex” value ([1]; FP assay) was “well into the pM range” and the Ki [1, 4] was < 1 nM.

With FVPTDVGPFSF-NH2 [N31D/S34P/K35F/A36S] the “Receptor Selectivity (in words)” value ([1]; FP assay) was “CGRP over AM1”, the Ki [1, 4] was 2.95 nM and the Ki [2, 5] was > 10000 nM.

With FVPTDVGPWAF-NH2 [N31D/S34P/K35W] the “Receptor Selectivity (in words)” value ([1]; FP assay) was “CGRP”, the Ki [1, 4] was 8.13 nM and the “RAMP2-CLR ECD (AM1) KI (nM)” value [2] was “No binding”.

With “FVPTDVGPWSY-NH2 [N31D/S34P/K35W/A36S/F37Y]” the “Receptor Selectivity, fold for CGRP” value ([1]; FP assay) was 245-fold for CGRP, the Ki [1, 4] was 1.32 nM and the Ki [2, 5] was 324 nM.
